Consider 3 compounds from patent US8609723B2 (Beijing Dingguochangsheng Biotech., Co., Ltd., priority 2008, dated 2013).

Data set [1] relates to 5-HT, NA, DA and metabolites thereof in hippocampus. In words: Detection of monoamine and metabolites thereof in brains of mice. The data set is classed as in vivo. The following applies: 10 mg/kg. As for the experimental part:
Hippocampus was collected immediately on ice, weighed, put into an Eppendorf tube and kept in refrigeratory at −80° C. To each 100 mg brain tissue, 200 μl ice-cooled Solution A (0.4 mol/L HCLO4) was added. The mixture was homogenized ultrasonically in a ice bath, kept in dark at 4° C. for 60 min, and centrifuged for 20 min (12,000 rpm, 4° C.). […] The mixture was vortexed thoroughly for 10 min, kept at 4° C. in dark for 60 min, and centrifuged again for 20 min (12,000 rpm, 4° C.). The supernatant was collected and measured for the content of monoamine. The contents of 5-HT, NA, DA, 5-HIAA and DOPAC in brain tissue were determined by High Effective Liquid Phase Electrochemistry. […] The contents of monoamine and metabolites thereof in brain tissue were shown as ng/g wet tissue weight.

The conditions of data set [2]: background statement; cited from earlier work.
For data set [3], the system named is male ICR mice. In words: Tail suspension test in mice. The note with it: curcumin 10 mg/kg, Days 3 and 7 after administration, vs control group. The data set is classed as in vivo. The method, then:
The tail suspension test was carried out for each of these groups on Days 3, 7 and 14 after administration, except that such experiment was not performed for the curcumin group on Day 14. Tails of the mice were taped on a special iron stand at 1 cm from the tips, whilst keeping the mice staying at a height of 50 cm from ground. Performance of the mice was observed within 6 min, and the accumulative immobile time within the last 4 min was recoded for each mouse.

For data set [4], the system named is male ICR mice. In words: Forced swimming test of mice. Type of data set: in vivo. The note with it: curcumin 10 mg/kg, Days 3 and 7 after administration. As for the experimental part: The mice were forced to swim on Days 3, 7 and 14 after administration, except that such experiment was not performed for the curcumin group on Day 14.
Twenty four hours before the formal test, the mice were placed into a round glass container (height: 25 cm, diameter: 10 cm) filled with water (depth: 10 cm) with a temperature of 24±1° C., and forced to conduct swim training for 15 min. Twenty four hours later, the mice were placed into the round glass container filled with water (depth: 10 cm) again and forced to swim for 6 min. The accumulative immobile time within the last 4 min was observed and recorded for each mouse. The immobile time is intended to mean the period within which the mouse stops to struggle, floats in the water and keeps immobile, or only makes a few slight movements that are necessary to keep its head floating on the surface of water.

For data set [5], the system named is S-180 sarcoma cells. In words: Antitumor experiment of tumor S-180-bearing mice. The data set is classed as in vivo. The following applies: 5-FU administered daily, 7 days. An excerpt:
During the experiment, the mice were inoculated with S-180 sarcoma cells (×10^7) in armpits. […] Seven days later, the mice were sacrificed by decollation. The tumors were removed, and the mice and the tumors were weighed separately.

The subject of data set [6] is S-180 cells. In words: Effect on apoptosis of tumor cells, cell cycle by flow cytometry. Type of data set: in vivo, mice. The note with it: sarcoma cell cycle, S-180 tumor fluid, 7 days. An excerpt:
During the experiment, the mice were inoculated with S-180 cells (×10^7) in armpits. Seven days later, the mice were sacrificed by decollation and the tumors were removed. Tumor fluid was collected from tumors, and used for determining cell cycle by flow cytometry after ethanol fixation.

In data set [7] the test system is HCT116 cells. In words: Antitumor experiment of tumor HCT116-bearing mice. The data set is classed as in vivo. The following applies: 5-FU administered daily, 7 days. An excerpt: During the experiment, the mice were inoculated with HCT116 cells (×10^7) in armpits. […] Seven days later, the mice were sacrificed by decollation. The tumors were removed, and the mice and the tumors were weighed separately.

The subject of data set [8] is serum corticosterone. Put plainly: Determination of the content of serum corticosterone (chronic stress model). The data set is classed as in vivo. The note with it: stressed rats, imipramine 10 mg/kg daily, day after 21-day stress. From the text: (§1) The rats in the normal control group were raised normally under a condition without any stimulation except for weighing body weight, measuring body temperature, and subjected to sugar test. All of other groups were subjected to stimulations of same type and same strength. During the experiment, different types of stimulations were applied in an unpredictable manner, and the same type of stimulation was enhanced each time.
(§2) The chronic stress course was 20 days in total, once per day, from 9:00 AM to 2:00 PM. The stress protocol was shown as follows: horizontally shaking at a high speed for 45 min; nipping tails (1 cm from the tail root): 1 min; depriving of water for 24 h; forbidding moving for 1.5 h; fasting for 24 h; stimulating with ice water (water temperature: 10° C.) for 5 min; electric shocking (1 mA, time course: is, 1 shock/min) the bottoms of feet for 30 min; changing cages and raising separately for 24 h; forbidding moving for 2 h; nipping tails (1 cm from the root of tail) for 1 min; depriving of water for 24 h; horizontally shaking at a high speed for 1.5 h; fasting for 24 h; nipping tails (1 cm from the tail root): 1 min; electric shocking (1 mA, time course: 1 s, 1 shock/min) the bottoms of feet for 40 min; stimulating with ice water for 5 min; changing cages and raising separately for 24 h; horizontally shaking at a high speed for 60 min; electric shocking (1 mA, time course: 1 s, 1 shock/min) the bottoms of feet for 50 min; depriving of water for 24 h; forbidding moving for 2.5 h; and 24 h social isolation.
In this experiment, the content of serum corticosterone was measured by a competitive method, with its mechanism shown as follow: antigens in samples and enzyme-labeled antigens compete to bind antibodies in a solid phase. The more antigens exist in samples, the less enzyme-labeled antigens bind to the solid phase, thereby resulting in a fainter coloration.
On the next day after the end of the 21-day stress period, rats were sacrificed by decollation, and 5˜10 ml whole blood was collected. A portion of the collected whole blood was kept at room temperature for 20 min, followed by centrifugation at 1000 rpm for 10 min. Serum was then separated and stored at −80° C. The serum corticosterone detection kit was used for such detection.

Data set [9] concerns chronically stressed rats. Put plainly: Sugar water test of rats (chronic stress model). The note with it: imipramine 10 mg/kg, table title says (%), the values are: sugar water preference. The data set is classed as in vivo.
Text: as §1, §2
Before this experiment, animals were trained to adapt to drink sugar water in a to quite room. Two bottles were placed simultaneously into each cage. For the first 24 h, these two bottles were both filled with 1% sugar water; and for the next 24 h, one of them was filled with 1% sugar water and the other was filled with pure water. Then after 23-hour water deprivation, the animals were tested for basic sugar water/pure water consumption. One bottle of 1% sugar water and one bottle of pure water were provided to each rat simultaneously. One hour later, the two bottles were weighed, and the total liquid consumption, sugar water consumption, pure water consumption, and the sugar water preference=sugar water consumption/total liquid consumption×100% were calculated, respectively. The experiment was performed after continuous administration of curcumin for 14 days.

The subject of data set [10] is chronically stressed rats. Put plainly: Measurement of body temperature of chronically stressed rats. The data set is classed as in vivo. The following applies: imipramine 10 mg/kg intraperitoneally daily for 21 days, chronic stress.
Text: as §1
as §2, with “The” for “The chronic stress course was 20 days in total, once per day, from 9:00 AM to 2:00 PM. The”
The front part of a digital thermometer was coated with liquid paraffin, and then inserted into the anus of a rat with a depth of approximately 1 cm. The temperature was read twice accordingly and averaged.

Data set [11] concerns chronically stressed rats. Put plainly: Forced swimming test of rats (chronic stress model). The note with it: imipramine 10 mg/kg intraperitoneally daily for 21 days. Type of data set: in vivo.
Text: as §1, §2
Please see FIG. 7. 24 hours before the formal test, rats were placed into a round glass container (height: 40 cm, diameter: 18 cm) filled with water (depth: 23 cm) with a temperature of 24±1° C., and forced to conduct swim training for 15 min. […] The accumulative immobile time within the last 4 min was observed and recorded for each rat. The immobile time is intended to mean the period within which the rat stops to struggle, floats in the water and keeps immobile, or only makes a few slight movements that are necessary to keep its head floating on the surface of water.

The mark [12] stands for this setting: first line of group (Day 3 presumed).
[13] abbreviates: second line of group (Day 7 presumed).

On to `COc1cc(/C=C/C(=O)CC(=O)/C=C/c2ccc(O)c(OC)c2)ccc1O` [Curcumin, curcumin, reference compound], for which, in data set [1] (setting [12]), the “Hippocampus 5-HIAA” value turned out to be 175.7 ± 13.8 ng/g, the “Hippocampus 5-HIAA/5-HT” value was 0.32 ± 0.03, the “Hippocampus 5-HT” value came to 541.2 ± 31.8 ng/g and the “Hippocampus DOPAC” value is listed as 12.4 ± 1.2 ng/g. For the same compound, in data set [1] (setting [12]), the “Hippocampus Dopamine” value was determined as 19.1 ± 3.6 ng/g and the “Hippocampus Noradrenaline” value is recorded as 245.6 ± 12.2 ng/g. In addition, in [1] (setting [13]), the “Hippocampus 5-HIAA” value amounted to 179.2 ± 14.9 ng/g, the “Hippocampus 5-HIAA/5-HT” value was 0.33 ± 0.03, the “Hippocampus 5-HT” value amounted to 534.6 ± 28.9 ng/g and the “Hippocampus DOPAC” value was found to be 11.9 ± 1.8 ng/g. In data set [1] (setting [13]), the “Hippocampus Dopamine” value is recorded as 18.8 ± 5.4 ng/g and the “Hippocampus Noradrenaline” value is 246.6 ± 11.2 ng/g. In addition, in [2], the half life entry was “approximately 1 hour”. In [3], the “reduction of tail suspension accumulative immobile time” value is on record as “no significant difference”. In addition, the “reduction of accumulative immobile time in the forced swimming test” value in data set [4] is on record as “did not significantly reduce”.

Regarding `O=c1[nH]cc(F)c(=O)[nH]1` [Example 5-FU, 5-FU, reference compound], in [5], the “inhibitory rate of tumors” value is given as 55.8%. In addition, in data set [6], the “APO % (apoptosis level of tumor cells)” value stood at 29.1%, the G1 % is given as 35.1%, the G2 % was found to be 11.7% and the S % is given as 53.2%. Further, in [7], the “inhibitory rate of tumors” value came out at 52.8%.

For `CN(C)CCCN1c2ccccc2CCc2ccccc21` [Imipramine, imipramine, reference compound], the serum corticosterone in data set [8] came out at 137.0 ± 15.3 nmol/L. In data set [9], this compound yielded a Sugar water volume after stress of 67.5 ± 5% and a Sugar water volume before stress of 74.8 ± 7.8%. For the same compound, in [10], the “Body temperature after stress” value worked out at 36.34 ± 0.083 °C. In addition, the “reduced the accumulative immobile time of the forced swimming test” value in data set [11] amounted to 40.5%.
